We go through 1 compound from patent US5508311A, “Aliphatic propargylamines as selective MAO-B inhibitors and as neuroprotective agents” (University of Saskatchewan, priority 1993, dated 1996).

One data set concerns the target monoamine oxidase. Put plainly: Inhibition of rat liver monoamine oxidase deamination of dopamine (DA, mixed-type MAO A and B substrate) in vitro. The data set is classed as biochemical. The following applies: substrate DA (5 × 10^-4 M), average of at least 3 independent experiments.
Data set [1] has as its target T1, MAO-B (Mus musculus, UniProt Q8BW75).
T1 construct: MAO activities in the mouse brain after; from tissue
T1 sequence (Q8BW75 1-520): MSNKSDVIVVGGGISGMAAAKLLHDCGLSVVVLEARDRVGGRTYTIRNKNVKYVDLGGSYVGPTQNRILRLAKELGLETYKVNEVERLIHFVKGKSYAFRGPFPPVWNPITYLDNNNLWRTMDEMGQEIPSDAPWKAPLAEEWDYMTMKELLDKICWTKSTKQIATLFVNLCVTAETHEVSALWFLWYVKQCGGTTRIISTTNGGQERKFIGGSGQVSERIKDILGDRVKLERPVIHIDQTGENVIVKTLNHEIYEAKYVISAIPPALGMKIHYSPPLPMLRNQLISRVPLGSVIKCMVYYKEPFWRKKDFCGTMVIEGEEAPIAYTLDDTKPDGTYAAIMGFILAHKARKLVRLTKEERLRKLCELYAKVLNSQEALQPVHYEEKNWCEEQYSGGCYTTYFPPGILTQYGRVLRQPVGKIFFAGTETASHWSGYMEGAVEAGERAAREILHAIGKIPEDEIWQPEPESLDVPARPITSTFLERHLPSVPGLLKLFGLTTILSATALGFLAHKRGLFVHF
Put plainly: in vivo. Format: in vivo. The following applies: mouse, ip. Here is the method:
(§1) Albino Swiss mice were used in this study. The animals were injected intraperitoneally with different doses of the aliphatic propargylamines in 100 μL saline.
(§2) 0.5, 1, 2, 5, 10, 20, 50, 100 mg/Kg. Striata were dissected from the brai
(§3) two hours after i.p. administration of the drugs. MAOA and MAOB activitie
(§4) were determined immediately. The values were estimated from doseresponse

The target in data set [2] is T2, MAO-A (Mus musculus, UniProt Q64133).
T2 construct: MAO activities in the mouse brain after; from tissue
T2 sequence (Q64133 1-526): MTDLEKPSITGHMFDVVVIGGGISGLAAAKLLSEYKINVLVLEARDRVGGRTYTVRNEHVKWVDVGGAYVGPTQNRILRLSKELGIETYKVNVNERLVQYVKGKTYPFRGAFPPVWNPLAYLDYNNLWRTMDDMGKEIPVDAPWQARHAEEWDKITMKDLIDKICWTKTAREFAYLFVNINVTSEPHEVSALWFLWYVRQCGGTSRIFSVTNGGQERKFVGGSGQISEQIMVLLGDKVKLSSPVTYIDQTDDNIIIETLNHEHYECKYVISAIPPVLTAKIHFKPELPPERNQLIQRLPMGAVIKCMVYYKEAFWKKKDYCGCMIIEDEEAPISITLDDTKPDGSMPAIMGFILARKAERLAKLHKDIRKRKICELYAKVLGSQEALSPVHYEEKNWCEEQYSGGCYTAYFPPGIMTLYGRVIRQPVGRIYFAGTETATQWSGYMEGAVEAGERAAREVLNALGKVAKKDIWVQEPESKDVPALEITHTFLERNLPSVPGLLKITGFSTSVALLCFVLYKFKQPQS
Put plainly: in vivo. The following applies: ip, 2 h, read-out: 5-HT ID50. The procedure: as §1, §2, §3, §4

For data set [3], the target named is T1, MAO-B. Put plainly: MAO-B activity in the mouse brain after oral administration (substrate PE). The following applies: 2 hours. The data set is classed as in vivo. Here is the method: (§5) Table 3 indicates the MAO activities in the mouse brain following oral administration of the aliphatic propargylamines.
(§6) of each compound. Striata were dissected from the brain two hours after
(§7) the administration of the drugs. MAOA and MAOB activities were determined
Striata were dissected from the brain two
hours after oral administration of the drugs. MAOB activities were then
determined immediately. The values were estimated from doseresponse

The target in data set [4] is T2, MAO-A. Format: in vivo. The note with it: mouse, in vivo, po, 10 mg/kg. The procedure: as §5, §6, §7
The next data set relates to dopamine neurons. Put plainly: Protection of dopamine neurons against MPTP-induced neurotoxicity in the mice brain. Format: in vivo, mouse. The text has this:
Three days later, dopamine levels and dopamine uptake site densities (GBR bindings) were estimated.

Another data set concerns noradrenaline neurons. Put plainly: Protection of noradrenaline neurons against DSP-4 induced neurotoxicity in the mouse brain. Format: in vivo. The following applies: Experiment I, pretreatment 10 mg/Kg i.p., mean ± S.E. Here is the method:
The analyses of DSP-4-induced neurotoxic effects were conducted in accordance with […] and Jonsson (Eur. J. Pharmacol. 103 (1984), 269-278), hereby incorporated by reference. Mice were pretreated with M-2-PP (10 mg/Kg) and 2-HxMP (10 mg/Kg) or saline as control via i.p. administration and one hour later challenged with a single i.p. dose of DSP-4 (DSP-4: […] One week after treatment noradrenaline content in the putamen of these mice was analyzed. The results which are shown in Table 5 are mean ± S.E. of five animals in each group.

For data set [5] the following is noted: mouse, in vivo. The source says:
The acute toxicity of these compounds is quite low. […]. The aliphatic side-chains of these aliphatic propargyl compounds are similar to those that exist in endogenous lipids and fatty acids and such aliphatic chains are readily oxidized in vivo. […]

Molecules are shown by their SMILES. pIC50: −log10 of the molar value.

By pIC50 is commonly meant the negative decadic logarithm of the IC50, by convention in mol/L. Low values mean a high IC50, high ones a low IC50. On to `C#CCN(C)C(C)CCC.Cl.O=C(O)C(=O)O` (stereo not shown) [Example M-2-PP, N-(2-Pentyl)-N-methylpropargylamine hydrochloride and oxalate], for which, on monoamine oxidase, the negative-log IC50 (pIC50) is 5.22. The “MAO-B ID50 (mg/Kg) / IC50 (1 × 10^-6 M)” value on MAO-B [1] (in vivo) came to 2.5. Besides, at MAO-B [1] (in vivo), the “inhibition of brain MAO-B activity in vivo (in words)” value is given as “more potent than the longer chain analogs at inhibiting brain MAO-B activity”. Further, on MAO-B [1] (in vivo, 120 min), the “Ratio MAO-A/MAO-B” value was determined as 50. Moreover, the ED50 was 0.5 mg/kg at MAO-B [1] (2 h, read-out: PE ID50); 25 mg/kg at MAO-A [2]; 1 mg/kg on MAO-B [3] (mouse, oral, average of 5 animals per dose, estimated from dose response curves, read-out: Inhibition of MAO-B activity, dose response (ID50)). In addition, the “Relative activity PE” value at MAO-B [3] (oral 10 mg/Kg, PE (1.9 × 10^-5 M), mean ± standard error, saline = 100) amounted to 31 ± 4%. Besides, the “Relative activity 5-HT” value at MAO-A [4] was found to be 89 ± 15. The Dopamine came out at 8.3 μg/gm in the data set on dopamine neurons (0.5 mg/Kg + MPTP) and 8.9 μg/gm with dopamine neurons (2.5 mg/Kg + MPTP). Further, the Dopamine binding site is on record as 312 pmol/mg in the data set on dopamine neurons (0.5 mg/Kg + MPTP) and 306 pmol/mg with dopamine neurons (2.5 mg/Kg + MPTP). Besides, the Noradrenaline in putamen is 90 ± 0.07% in the data set on noradrenaline neurons (DSP-4 50 mg/Kg, p < 0.01 vs DSP-4 (DSP-4 alone 33)) and 111 ± 0.09% in the data set with noradrenaline neurons (saline, no DSP-4). In addition, the “fatality after oral administration” value in data set [5] was “no fatality”.
